Consider 20 compounds from patent publication US11919899B2, “Substituted 1-(3,3-difluoropiperidin-4-yl)-imidazo[4,5-c] quinolin-2-one compounds with blood-brain barrier penetrable capability” (priority 2020, dated 2024).

Data set [1] is described as follows: Blood-brain barrier penetration (brain tissue to plasma concentration ratio). It counts as in vivo. Conditions: ratio of concentration in brain tissue to plasma; rats or mice, four hours after dosing. On the procedure:
Four hours after dosing, rats or mice were sacrificed, blood and brain tissue were collected and the concentration of the test compound was analyzed. Brain permeation is defined as the ratio of the concentration of the compound in the brain tissue to the concentration in the plasma. P-glycoprotein and BCRP (Breast Cancer Resistance Protein) are the blood-brain barrier efflux proteins, the P-glycoprotein substrate (Efflux ratio>1.5) and/or BCRP substrate (Efflux ratio>1.5) is out of the brain.

The next data set addresses P-glycoprotein (Homo sapiens, UniProt P08183). Put plainly: P-glycoprotein efflux substrate. In kind it is in vitro ADME. As to conditions: not told.
For another data set, the target named is T1, BCRP (Homo sapiens, UniProt Q9UNQ0).
T1 sequence (Q9UNQ0 1-655): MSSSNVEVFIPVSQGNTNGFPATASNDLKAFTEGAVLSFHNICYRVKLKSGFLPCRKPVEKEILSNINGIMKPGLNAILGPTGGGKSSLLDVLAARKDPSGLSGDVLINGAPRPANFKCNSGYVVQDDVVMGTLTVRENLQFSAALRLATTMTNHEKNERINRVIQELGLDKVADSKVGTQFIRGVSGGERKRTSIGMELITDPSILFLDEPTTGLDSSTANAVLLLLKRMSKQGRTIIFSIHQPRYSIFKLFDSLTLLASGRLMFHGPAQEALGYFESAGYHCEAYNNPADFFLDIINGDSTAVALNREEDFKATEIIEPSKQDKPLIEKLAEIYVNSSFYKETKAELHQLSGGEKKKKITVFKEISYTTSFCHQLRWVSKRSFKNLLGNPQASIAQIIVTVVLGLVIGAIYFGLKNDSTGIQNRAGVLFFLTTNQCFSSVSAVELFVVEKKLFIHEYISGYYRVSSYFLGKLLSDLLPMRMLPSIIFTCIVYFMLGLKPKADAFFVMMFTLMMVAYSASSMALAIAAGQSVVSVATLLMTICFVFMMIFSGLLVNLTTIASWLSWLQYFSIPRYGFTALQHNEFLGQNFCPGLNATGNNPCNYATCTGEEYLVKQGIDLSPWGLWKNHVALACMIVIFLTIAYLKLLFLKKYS
Description: BCRP efflux substrate. Conditions: not told. In kind it is in vitro ADME.

Sequence of P-glycoprotein (P08183 whole entry): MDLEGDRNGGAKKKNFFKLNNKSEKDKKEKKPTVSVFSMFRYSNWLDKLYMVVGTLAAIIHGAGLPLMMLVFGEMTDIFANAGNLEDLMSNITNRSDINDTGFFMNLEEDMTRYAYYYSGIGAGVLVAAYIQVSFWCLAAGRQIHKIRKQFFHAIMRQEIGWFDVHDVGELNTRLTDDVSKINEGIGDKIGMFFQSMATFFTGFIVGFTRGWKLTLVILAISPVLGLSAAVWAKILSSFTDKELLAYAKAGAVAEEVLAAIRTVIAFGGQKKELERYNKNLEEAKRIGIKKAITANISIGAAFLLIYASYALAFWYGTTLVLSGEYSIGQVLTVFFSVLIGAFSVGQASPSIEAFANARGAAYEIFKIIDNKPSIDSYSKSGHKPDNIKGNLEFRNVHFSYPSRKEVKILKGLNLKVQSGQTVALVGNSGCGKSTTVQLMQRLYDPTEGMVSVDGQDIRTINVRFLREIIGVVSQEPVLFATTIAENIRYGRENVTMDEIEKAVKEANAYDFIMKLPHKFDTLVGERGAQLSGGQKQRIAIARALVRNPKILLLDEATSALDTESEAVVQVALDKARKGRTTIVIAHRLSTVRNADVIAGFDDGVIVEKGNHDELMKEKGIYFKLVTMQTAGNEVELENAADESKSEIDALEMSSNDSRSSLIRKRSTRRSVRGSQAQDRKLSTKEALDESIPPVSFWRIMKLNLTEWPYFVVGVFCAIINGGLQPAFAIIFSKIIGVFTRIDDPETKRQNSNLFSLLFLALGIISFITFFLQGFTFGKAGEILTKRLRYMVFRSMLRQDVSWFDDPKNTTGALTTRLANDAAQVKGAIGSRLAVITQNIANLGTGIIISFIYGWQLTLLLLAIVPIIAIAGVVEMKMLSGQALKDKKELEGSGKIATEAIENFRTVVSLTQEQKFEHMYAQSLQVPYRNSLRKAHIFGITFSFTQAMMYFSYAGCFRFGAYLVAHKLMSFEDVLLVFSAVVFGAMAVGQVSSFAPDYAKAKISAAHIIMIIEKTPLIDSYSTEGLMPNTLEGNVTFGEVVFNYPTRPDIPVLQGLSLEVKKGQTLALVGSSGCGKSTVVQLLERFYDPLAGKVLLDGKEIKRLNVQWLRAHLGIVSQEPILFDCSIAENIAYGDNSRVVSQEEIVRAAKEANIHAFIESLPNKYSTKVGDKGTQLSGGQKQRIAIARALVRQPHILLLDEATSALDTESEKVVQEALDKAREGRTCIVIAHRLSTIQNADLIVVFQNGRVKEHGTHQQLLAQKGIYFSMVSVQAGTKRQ

The term Kp denotes the ratio of the level in a tissue or fluid to that in plasma or blood. As a reminder, the efflux ratio is the permeability from basolateral to apical divided by that in the opposite direction, in the common usage. As to `CCN1CCC(n2c(=O)n(C)c3cnc4ccc(-c5ccc(OC)nc5)cc4c32)C(F)(F)C1` (racemic) [Compound 2, (R/S)-1-(1-ethyl-3,3-difluoropiperidin-4-yl)-8-(6-methoxypyridin-3-yl)-3-methyl-1,3-dihydro-2H-imidazo[4,5-c]quinolin-2-one], in data set [1], the Kp at 4 h was > 0.3. Besides, the efflux ratio at P-glycoprotein and on BCRP was < 1 throughout.
`COc1ccc(-c2ccc3ncc4c(c3c2)n(C2CCN(C(C)C)CC2(F)F)c(=O)n4C)cn1` (racemic) [Compound 3, (R/S)-1-(3,3-difluoro-1-isopropylpiperidin-4-yl)-8-(6-methoxypyridin-3-yl)-3-methyl-1,3-dihydro-2H-imidazo[4,5-c]quinolin-2-one]: in data set [1], the Kp at 4 h is > 0.3. Further, the efflux ratio on P-glycoprotein and on BCRP was < 1 in each case.
As for `CCOc1ccc(-c2ccc3ncc4c(c3c2)n(C2CCN(C)CC2(F)F)c(=O)n4C)cn1` (racemic) [Compound 4, (R/S)-1-(3,3-difluoro-1-methylpiperidin-4-yl)-8-(6-ethoxypyridin-3-yl)-3-methyl-1,3-dihydro-2H-imidazo[4,5-c]quinolin-2-one], the Kp at 4 h in data set [1] was > 0.3. In addition, the efflux ratio on P-glycoprotein and at BCRP was < 1 in each case.
Consider `COc1ccc(-c2cc3c(cc2F)ncc2c3n(C3CCN(C)CC3(F)F)c(=O)n2C)cn1` (racemic) [Compound 5, (R/S)-1-(3,3-difluoro-1-methylpiperidin-4-yl)-7-fluoro-8-(6-methoxypyridin-3-yl)-3-methyl-1,3-dihydro-2H-imidazo[4,5-c]quinolin-2-one], for which the Kp at 4 h in data set [1] is > 0.3. The efflux ratio at P-glycoprotein and on BCRP was < 1 throughout.
Consider `CC(C)Oc1ccc(-c2ccc3ncc4c(c3c2)n(C2CCN(C)CC2(F)F)c(=O)n4C)cn1` (racemic) [Compound 7, (R/S)-1-(3,3-difluoro-1-methylpiperidin-4-yl)-8-(6-isopropoxypyridin-3-yl)-3-methyl-1,3-dihydro-2H-imidazo[4,5-c]quinolin-2-one], for which, in data set [1], the Kp at 4 h was > 0.3. The efflux ratio on P-glycoprotein and at BCRP was < 1 in each case.
On to `CN1CCC(n2c(=O)n(C)c3cnc4ccc(-c5ccc(N(C)C)nc5)cc4c32)C(F)(F)C1` (racemic) [Compound 8, (R/S)-1-(3,3-difluoro-1-methylpiperidin-4-yl)-8-(6-(dimethylamino)pyridin-3-yl)-3-methyl-1,3-dihydro-2H-imidazo[4,5-c]quinolin-2-one], for which the Kp at 4 h in data set [1] was > 0.3. Moreover, the efflux ratio at P-glycoprotein and on BCRP was < 1 each time.
As for `CN1CCC(n2c(=O)n(C)c3cnc4ccc(-c5ccc(OC6CC6)nc5)cc4c32)C(F)(F)C1` (racemic) [Compound 10, (R/S)-8-(6-cyclopropoxypyridin-3-yl)-1-(3,3-difluoro-1-methylpiperidin-4-yl)-3-methyl-1,3-dihydro-2H-imidazo[4,5-c]quinolin-2-one], the Kp at 4 h in data set [1] is > 0.3. For the same compound, the efflux ratio on P-glycoprotein and at BCRP was < 1 throughout.
With `CN1CCC(n2c(=O)n(C)c3cnc4ccc(-c5ccc(N6CC(N(C)C)C6)nc5)cc4c32)C(F)(F)C1` (racemic) [Compound 11, (R/S)-1-(3,3-difluoro-1-methylpiperidin-4-yl)-8-(6-(3-(dimethylamino)azetidin-1-yl)pyridin-3-yl)-3-methyl-1,3-dihydro-2H-imidazo[4,5-c]quinolin-2-one], the Kp at 4 h in data set [1] is > 0.3. The efflux ratio on P-glycoprotein and at BCRP was < 1 in each case.
For `CN1CCC(n2c(=O)n(C)c3cnc4ccc(-c5ccc(N6CC7C6CCN7C)nc5)cc4c32)C(F)(F)C1` (racemic) [Compound 13, (R/S)-1-(3,3-difluoro-1-methylpiperidin-4-yl)-3-methyl-8-(6-((1R,5R/1S,5S)-(2-methyl-2,6-diazabicyclo[3.2.0]heptan-6-yl)pyridin-3-yl)-1,3-dihydro-2H-imidazo[4,5-c]quinolin-2-one], the Kp at 4 h in data set [1] was > 0.3. Moreover, the efflux ratio on P-glycoprotein and at BCRP was < 1 in each case.
Turning to `CCN1CC[C@@H](n2c(=O)n(C)c3cnc4ccc(-c5ccc(OC)nc5)cc4c32)C(F)(F)C1` [Compound 15, (R)-1-(1-ethyl-3,3-difluoropiperidin-4-yl)-8-(6-methoxypyridin-3-yl)-3-methyl-1,3-dihydro-2H-imidazo[4,5-c]quinolin-2-one], in data set [1], the Kp at 4 h was > 0.3. For the same compound, the efflux ratio at P-glycoprotein and at BCRP was < 1 in each case.
As to `COc1ccc(-c2ccc3ncc4c(c3c2)n([C@@H]2CCN(C(C)C)CC2(F)F)c(=O)n4C)cn1` [Compound 16, (R)-1-(3,3-difluoro-1-isopropylpiperidin-4-yl)-8-(6-methoxypyridin-3-yl)-3-methyl-1,3-dihydro-2H-imidazo[4,5-c]quinolin-2-one], in data set [1], the Kp at 4 h was > 0.3. The efflux ratio on P-glycoprotein and at BCRP was < 1 each time.
On to `CCOc1ccc(-c2ccc3ncc4c(c3c2)n([C@@H]2CCN(C)CC2(F)F)c(=O)n4C)cn1` [Compound 17, (R)-1-(3,3-difluoro-1-methylpiperidin-4-yl)-8-(6-ethoxypyridin-3-yl)-3-methyl-1,3-dihydro-2H-imidazo[4,5-c]quinolin-2-one], for which the Kp at 4 h in data set [1] is > 0.3. The efflux ratio on P-glycoprotein and at BCRP was < 1 throughout.
For `COc1ccc(-c2cc3c(cc2F)ncc2c3n([C@@H]3CCN(C)CC3(F)F)c(=O)n2C)cn1` [Compound 18, (R)-1-(3,3-difluoro-1-methylpiperidin-4-yl)-7-fluoro-8-(6-methoxypyridin-3-yl)-3-methyl-1,3-dihydro-2H-imidazo[4,5-c]quinolin-2-one], the Kp at 4 h in data set [1] is > 0.3. Further, the efflux ratio on P-glycoprotein and at BCRP was < 1 throughout.
With `CC(C)Oc1ccc(-c2ccc3ncc4c(c3c2)n([C@@H]2CCN(C)CC2(F)F)c(=O)n4C)cn1` [Compound 20, (R)-1-(3,3-difluoro-1-methylpiperidin-4-yl)-8-(6-isopropoxypyridin-3-yl)-3-methyl-1,3-dihydro-2H-imidazo[4,5-c]quinolin-2-one], in data set [1], the Kp at 4 h was > 0.3. In addition, the efflux ratio at P-glycoprotein and on BCRP was < 1 in each case.
With `CN1CC[C@@H](n2c(=O)n(C)c3cnc4ccc(-c5ccc(N(C)C)nc5)cc4c32)C(F)(F)C1` [Compound 21, (R)-1-(3,3-difluoro-1-methylpiperidin-4-yl)-8-(6-(dimethylamino)pyridin-3-yl)-3-methyl-1,3-dihydro-2H-imidazo[4,5-c]quinolin-2-one], the Kp at 4 h in data set [1] is > 0.3. The efflux ratio at P-glycoprotein and on BCRP was < 1 in each case.
As to `CN1CC[C@@H](n2c(=O)n(C)c3cnc4ccc(-c5ccc(OC6CC6)nc5)cc4c32)C(F)(F)C1` [Compound 23, (R)-8-(6-cyclopropoxypyridin-3-yl)-1-(3,3-difluoro-1-methylpiperidin-4-yl)-3-methyl-1,3-dihydro-2H-imidazo[4,5-c]quinolin-2-one], the Kp at 4 h in data set [1] was > 0.3. In addition, the efflux ratio on P-glycoprotein and on BCRP was < 1 in each case.
`CN1CC[C@@H](n2c(=O)n(C)c3cnc4ccc(-c5ccc(N6CC(N(C)C)C6)nc5)cc4c32)C(F)(F)C1` [Compound 24, (R)-1-(3,3-difluoro-1-methylpiperidin-4-yl)-8-(6-(3-(dimethylamino)azetidin-1-yl)pyridin-3-yl)-3-methyl-1,3-dihydro-2H-imidazo[4,5-c]quinolin-2-one]: the Kp at 4 h in data set [1] was > 0.3. Also, the efflux ratio on P-glycoprotein and at BCRP was < 1 each time.
Regarding `CN1CC[C@@H](n2c(=O)n(C)c3cnc4ccc(-c5ccc(N6C[C@@H]7[C@H]6CCN7C)nc5)cc4c32)C(F)(F)C1` [Compound 26], the Kp at 4 h in data set [1] was > 0.3. Moreover, the efflux ratio at P-glycoprotein and at BCRP was < 1 throughout.
As to `CN1CC[C@@H](n2c(=O)n(C)c3cnc4ccc(-c5ccc(N6C[C@H]7[C@@H]6CCN7C)nc5)cc4c32)C(F)(F)C1` [Compound 27], the Kp at 4 h in data set [1] was > 0.3. Moreover, the efflux ratio on P-glycoprotein and on BCRP was < 1 each time.
With `CCN1CC[C@H](n2c(=O)n(C)c3cnc4ccc(-c5ccc(OC)nc5)cc4c32)C(F)(F)C1` [Compound 29, (S)-1-(1-ethyl-3,3-difluoropiperidin-4-yl)-8-(6-methoxypyridin-3-yl)-3-methyl-1,3-dihydro-2H-imidazo[4,5-c]quinolin-2-one], the Kp at 4 h in data set [1] is > 0.3. The efflux ratio at P-glycoprotein and on BCRP was < 1 throughout.
